Consider seven compounds from patent US20150322067A1, “NITROGEN CONTAINING COMPOUNDS AND THEIR USE” (priority 2011, published 2015).

Like-named read-outs stand apart in the source and are kept apart here.

Holding throughout (experiment): Agar dilution MIC (CLSI), beta-lactam with or without beta-lactamase inhibitor
Format in all cases: cell-based

For experiment [1], the system named is E. coli M 50. Particulars: Class C ESBL strain; for MIC of Ceftazidime + inhibitor: Ceftazidime in combination with inhibitor at 4 mcg/ml. As for the experimental part: (§1) The biological activity of representative compounds of the invention against various bacterial strains (in combination with another antibacterial agent) was investigated. In a typical study, overnight grown bacterial cultures were diluted appropriately and inoculated on the agar media containing doubling dilutions of the antibiotics. Observation for growth or no growth was performed after 16-20 hours of incubation at 35±2° C. in ambient air. The overall procedure was performed as per Clinical and Laboratory Standards Institute (CLSI) recommendations (Clinical and Laboratory Standards Institute (CLSI), performance Standards for Antimicrobial Susceptibility Testing, 20th Informational Supplement, M 100-S20, Volume 30, No. 1, 2010). Table 1 details potencies of ceftazidime in combination of representative compound according to the invention (compound of formula (I) wherein M is sodium) against various MDR (Multi Drug Resistant) Gram-negative strains producing Class A, C and D beta-lactamase enzymes. The activities are expressed as MICs (mcg/ml). For comparison, the activity of various other known beta-lactamase inhibitors such as clavulanic acid, tazobactam, MK-7655, and NXL-104 are also provided.

Experiment [2] deals with E. coli 7 MP. The settings on record: Class C ESBL strain; for MIC of Ceftazidime + inhibitor: Ceftazidime in combination with inhibitor at 4 mcg/ml. The method, then:
as §1

Experiment [3] relates to K. pneumoniae ATCC 700603. Particulars: Class A ESBL strain; for MIC of Ceftazidime + inhibitor: Ceftazidime in combination with inhibitor at 4 mcg/ml. As for the experimental part:
as §1

In experiment [4] the test system is E. coli NCTC 13352. Particulars: Class A ESBL strain; for MIC of Ceftazidime + inhibitor: Ceftazidime in combination with inhibitor at 4 mcg/ml. As for the experimental part: as §1
For experiment [5], the system named is E. coli B 89. The settings on record: Class C ESBL strain; for MIC of Ceftazidime + inhibitor: Ceftazidime in combination with inhibitor at 4 mcg/ml. As for the experimental part: as §1
Experiment [6] relates to E. coli NCTC 13351. The settings on record: Class A ESBL strain; for MIC of Ceftazidime + inhibitor: Ceftazidime in combination with inhibitor at 4 mcg/ml. The method, then: as §1
Experiment [7] deals with A. baumanni NCTC 13304. The settings on record: Class D ESBL strain; for MIC of Ceftazidime + inhibitor: Ceftazidime in combination with inhibitor at 4 mcg/ml; for MIC of Meropenem + inhibitor: Meropenem in combination with inhibitor at 4 mcg/ml. The method, then:
as §1
(§2) Table 2 details data corresponding to a combination of Meropenem with a compound of Formula (I), wherein M is sodium, against Class D ESBL producing strains. Class D ESBLs producing pathogens that confer a high degree of resistance to carbapenems are a therapeutic problem in the clinical settings since extremely limited treatment options are available to treat them.

The subject of experiment [8] is A. baumanni NCTC 13301. Particulars: Class D ESBL strain; for MIC of Ceftazidime + inhibitor: Ceftazidime in combination with inhibitor at 4 mcg/ml; for MIC of Meropenem + inhibitor: Meropenem in combination with inhibitor at 4 mcg/ml. The method, then: as §1, §2
Experiment [9] has as its system A. baumanni NCTC 13305. Particulars: Class D ESBL strain; for MIC of Ceftazidime + inhibitor: Ceftazidime in combination with inhibitor at 4 mcg/ml; for MIC of Meropenem + inhibitor: Meropenem in combination with inhibitor at 4 mcg/ml. The method, then: as §1, §2
Where [10] appears, read: Ceftazidime alone, read-out: MIC of Ceftazidime, Control.
Where [11] appears, read: Meropenem alone, read-out: MIC of Meropenem, Control.

Turning to `CC(C)(O/N=C(\C(=O)N[C@@H]1C(=O)N2C(C(=O)[O-])=C(C[n+]3ccccc3)CS[C@H]12)c1csc(N)n1)C(=O)O` [Ceftazidime], the MIC is greater than 32 µg/mL in [1] (Escherichia coli, M50, Ceftazidime alone, read-out: MIC of Ceftazidime, Control); greater than 32 µg/mL in [2] (Escherichia coli, 7MP, Ceftazidime alone, read-out: MIC of Ceftazidime, Control); 32 µg/mL in [3] (Klebsiella pneumoniae, ATCC700603, Ceftazidime alone, read-out: MIC of Ceftazidime, Control); greater than 32 µg/mL in experiment [4] (Escherichia coli, NCTC13352, Ceftazidime alone, read-out: MIC of Ceftazidime, Control); greater than 32 µg/mL in [5] (Escherichia coli, B89, Ceftazidime alone, read-out: MIC of Ceftazidime, Control); 32 µg/mL in experiment [6] (Escherichia coli, NCTC13351, Ceftazidime alone, read-out: MIC of Ceftazidime, Control). Further, the MIC in [7] (setting [10]) was greater than 32 µg/mL; in experiment [8] (setting [10]), greater than 32 µg/mL; in experiment [9] (setting [10]), 16 µg/mL.

For the compound `O=C(O)[C@H]1/C(=C/CO)O[C@@H]2CC(=O)N21` [Clavulanic acid, clavulanic acid], the “MIC of Ceftazidime + inhibitor” value in experiment [1] was greater than 32 µg/mL; in [2], greater than 32 µg/mL; in [3] it was 0.5 µg/mL; in experiment [4], 0.5 µg/mL; in experiment [5] it was greater than 32 µg/mL; in experiment [6], 0.5 µg/mL. The “MIC of Ceftazidime + inhibitor” value was greater than 32 µg/mL in experiment [7], greater than 32 µg/mL in experiment [8] and 16 µg/mL in experiment [9]. Also, the figures for the “MIC of Meropenem + inhibitor” value in experiment [7], in experiment [8] and in [9] were 32 µg/mL, 32 µg/mL and 8 µg/mL, respectively.

Consider `O=C(NC1CCNCC1)[C@@H]1CC[C@@H]2CN1C(=O)N2OS(=O)(=O)O` [MK 7655], for which the “MIC of Ceftazidime + inhibitor” value in [1] is 2 µg/mL; in experiment [2], 8 µg/mL; in experiment [3], 2 µg/mL; in experiment [4], 8 µg/mL; in experiment [5], 4 µg/mL; in experiment [6] it was 2 µg/mL. In addition, the “MIC of Ceftazidime + inhibitor” value in [7] was 32 µg/mL; in experiment [8], greater than 32 µg/mL; in experiment [9], 16 µg/mL. The “MIC of Meropenem + inhibitor” value in experiment [7] stood at 32 µg/mL; in experiment [8], 32 µg/mL; in [9], 8 µg/mL.

Turning to `C[C@@H](O)[C@H]1C(=O)N2C(C(=O)O)=C(S[C@@H]3CN[C@H](C(=O)N(C)C)C3)[C@H](C)[C@H]12` [Meropenem], the minimum inhibitory concentration (MIC) was 32 µg/mL in [7] (setting [11]), 32 µg/mL in experiment [8] (setting [11]) and 8 µg/mL in [9] (setting [11]).

Regarding `NC(=O)[C@@H]1CC[C@@H]2CN1C(=O)N2OS(=O)(=O)O` [NXL104], the “MIC of Ceftazidime + inhibitor” value in experiment [1] came to 1 µg/mL; in experiment [2] it was 4 µg/mL; in [3], 0.5 µg/mL; in experiment [4], 0.5 µg/mL; in experiment [5], 1 µg/mL; in experiment [6], 0.5 µg/mL. For the same compound, the “MIC of Ceftazidime + inhibitor” value in experiment [7] is 32 µg/mL; in experiment [8] it was greater than 32 µg/mL; in experiment [9] it was 16 µg/mL. The “MIC of Meropenem + inhibitor” value in experiment [7] amounted to 16 µg/mL; in experiment [8] it was 16 µg/mL; in experiment [9], 8 µg/mL.

For the compound `N#C[C@@H]1CC[C@@H]2CN1C(=O)N2OS(=O)(=O)[O-].[Na+]` [Sodium salt of trans-7-oxo-6-(sulphoxy)-1,6-diazabicyclo[3.2.1]-octane-2-carbonitrile], the “MIC of Ceftazidime + inhibitor” value in [1] was found to be 1 µg/mL; in experiment [2] it was 2 µg/mL; in experiment [3], 0.5 µg/mL; in experiment [4], 0.5 µg/mL; in experiment [5] it was 1 µg/mL; in experiment [6], 0.5 µg/mL. Also, the entries for the “MIC of Ceftazidime + inhibitor” value in experiment [7], in [8] and in experiment [9] were 32 µg/mL, 32 µg/mL and 16 µg/mL, respectively. The “MIC of Meropenem + inhibitor” value in experiment [7] was 2 µg/mL; in [8] it was 4 µg/mL; in experiment [9], 2 µg/mL.

As for `C[C@]1(Cn2ccnn2)[C@H](C(=O)O)N2C(=O)C[C@H]2S1(=O)=O` [Tazobactam, tazobactam], the “MIC of Ceftazidime + inhibitor” value in experiment [1] is greater than 32 µg/mL; in experiment [2], greater than 32 µg/mL; in [3], 1 µg/mL; in experiment [4], 1 µg/mL; in experiment [5], greater than 32 µg/mL; in experiment [6] it was 0.5 µg/mL. Also, the “MIC of Ceftazidime + inhibitor” value was greater than 32 µg/mL in experiment [7], greater than 32 µg/mL in experiment [8] and 16 µg/mL in experiment [9]. Further, the “MIC of Meropenem + inhibitor” value in [7] came to 32 µg/mL; in experiment [8], 32 µg/mL; in experiment [9], 8 µg/mL.
